Source: patent US10213415B2, “Compounds as opioid receptor modulators” (JANSSEN PHARMACEUTICA NV, priority 2004, dated 2019)
Where two headings read alike, the source gives them in different places.

Columns and labels:
human mu opioid receptor = biological target: T1, human mu opioid receptor (Homo sapiens, UniProt P35372); test: Human Mu Opioid Receptor Binding Assay (CHO membranes, 3H-Damgo); settings: read-out: hKi μ
T1 construct: purchased Perkin Elmer RBHOMM400UA; host or cells: Chinese Hamster Ovary cells (recombinant expression)
T1 sequence (P35372 whole entry): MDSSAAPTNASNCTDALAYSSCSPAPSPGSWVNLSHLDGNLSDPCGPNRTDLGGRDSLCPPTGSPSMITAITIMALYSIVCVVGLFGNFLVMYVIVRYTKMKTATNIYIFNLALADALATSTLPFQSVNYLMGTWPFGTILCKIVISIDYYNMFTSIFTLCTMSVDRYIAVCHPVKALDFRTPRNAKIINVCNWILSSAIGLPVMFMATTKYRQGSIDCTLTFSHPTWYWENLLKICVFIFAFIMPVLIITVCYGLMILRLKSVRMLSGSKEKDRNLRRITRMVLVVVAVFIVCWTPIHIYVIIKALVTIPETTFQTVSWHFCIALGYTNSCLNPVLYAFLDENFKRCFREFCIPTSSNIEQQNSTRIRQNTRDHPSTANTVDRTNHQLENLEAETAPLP
Method in brief: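 Radioligand displacement of ³H-Damgo (diluted to 3.6 nM pre-mix) from recombinant human mu receptor in CHO membranes, 2 h, room temperature, 50 mM Tris pH 7.5 with 5 mM MgCl2. Bound label read by filtration and scintillation counting; 1 μM unlabelled Damgo defines nonspecific binding.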

[1] = biological target: T2, delta opioid receptor (NG108-15 cell membranes) (Mus musculus, UniProt P32300); test: Delta Opioid Receptor Functional Assay: [35S]GTPγS Binding in NG108-15 Cell Membranes, Version 2; format: biochemical; settings: NG108-15 cell membranes, version 2; for EC50: [35S]GTPγS, read-out: DOR GTP-binding Assay_v2_ EC50; for DOR GTP-binding Assay v2 (% I): % inhibition of agonist-stimulated GTPγS binding
T2 construct: NG108-15 cell membranes were purchased from Applied Cell Sciences (Rockville, Md.); host or cells: NG108-15 cells (membranes purchased)
T2 sequence (P32300 whole entry): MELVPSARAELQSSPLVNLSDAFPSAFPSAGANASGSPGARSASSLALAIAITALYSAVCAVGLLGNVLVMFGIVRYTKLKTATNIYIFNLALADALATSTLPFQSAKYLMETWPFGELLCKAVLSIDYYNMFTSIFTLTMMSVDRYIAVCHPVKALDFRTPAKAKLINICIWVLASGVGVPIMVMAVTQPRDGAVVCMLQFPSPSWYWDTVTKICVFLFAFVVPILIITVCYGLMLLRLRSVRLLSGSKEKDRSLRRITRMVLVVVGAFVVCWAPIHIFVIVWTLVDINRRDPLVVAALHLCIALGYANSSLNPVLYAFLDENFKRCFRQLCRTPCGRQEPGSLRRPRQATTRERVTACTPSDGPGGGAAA
Procedure: NG108-15 cell membranes were purchased from Applied Cell Sciences (Rockville, Md.). 8 mg/ml of membrane protein suspended in 10 mM TRIS-HC pH 7.2, 2 mM EDTA, 10% sucrose.
Membranes were maintained at 4-8° C. A portion (1 ml) of membranes was added into 10 ml cold binding assay buffer. The assay buffer contained 50 mM Tris, pH 7.6, 5 mM MgCl2, 100 mM NaCl, 1 mM DTT and 1 mM EGTA. The membrane suspension was homogenized with a Polytron for 2 times and centrifuged at 3000 rpm for 10 min. The supernent was then centrifuged at 18,000 rpm for 20 min. The pellet was saved in a tube and 10 ml assay buffer was added into the tube. The pellet and buffer were mixed with a Polytron.
The pellet membranes (75 μg/ml) were preincubated with SPA (10 mg/ml) at 25° C. for 45 min in the assay buffer. The SPA (5 mg/ml) coupled with membranes (37.5 μg/ml) was then incubated with 0.1 nM [^35S] GTPγS in the same Tris buffer containing 100 μM GDP in total volume of 200 μl. Increasing concentrations of receptor agonists were used to stimulate [^35S] GTPγS binding. The basal binding was tested in the absent agonists and no specific binding was tested in the present 10 μM unlabeled GTPγS. The data were analyzed on a Top counter.
[formula] % Inhibition=(% stimulation by 1 μM SNC80−% stimulation by 1 μM SNC80 in presence of test compound)×100/(% Stimulation by 1 μM SNC80−100) % of Basal=(stimulate−non specific)*100/(basal−non specific). EC50 values were calculated using GraphPad Prism.

[2] = biological target: T3, human delta subtype 2 opioid receptor (Homo sapiens, UniProt P41143); test: Human Delta Opioid Receptor Binding Assay (CHO membranes, 3H-Naltrindole); settings: read-out: hKi δ
T3 construct: purchased Perkin Elmer RBHODM400UA; host or cells: Chinese Hamster Ovary cells (recombinant expression)
T3 sequence (P41143 whole entry): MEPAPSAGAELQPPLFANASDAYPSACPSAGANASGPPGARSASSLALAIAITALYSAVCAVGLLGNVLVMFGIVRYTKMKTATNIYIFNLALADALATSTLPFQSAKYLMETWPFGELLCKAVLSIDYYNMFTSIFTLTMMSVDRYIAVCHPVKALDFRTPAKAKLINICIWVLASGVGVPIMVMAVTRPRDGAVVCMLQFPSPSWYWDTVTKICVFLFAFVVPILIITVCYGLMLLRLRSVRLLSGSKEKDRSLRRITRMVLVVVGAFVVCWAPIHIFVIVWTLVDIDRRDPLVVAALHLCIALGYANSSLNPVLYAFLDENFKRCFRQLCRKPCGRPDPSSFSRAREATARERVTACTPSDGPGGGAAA
Method in brief: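 Compound displacement of tritiated naltrindole (6 nM working dilution) measured by scintillation counting after GF/C filtration. Receptor source: recombinant CHO membranes; buffer 50 mM Tris, 5 mM MgCl2, pH 7.5; 30 min room-temperature incubation. 1 μM cold naltrindole sets nonspecific binding.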

delta opioid receptor = biological target: T4, delta opioid receptor (Rattus norvegicus, UniProt P33533); test: Rat Brain Delta Opioid Receptor Binding Assay ([3H]DPDPE); settings: rat forebrain membranes, margin of error 10-20%, read-out: r Ki δ
T4 construct: from tissue; host or cells: forebrain of male Wistar rats
T4 sequence (P33533 whole entry): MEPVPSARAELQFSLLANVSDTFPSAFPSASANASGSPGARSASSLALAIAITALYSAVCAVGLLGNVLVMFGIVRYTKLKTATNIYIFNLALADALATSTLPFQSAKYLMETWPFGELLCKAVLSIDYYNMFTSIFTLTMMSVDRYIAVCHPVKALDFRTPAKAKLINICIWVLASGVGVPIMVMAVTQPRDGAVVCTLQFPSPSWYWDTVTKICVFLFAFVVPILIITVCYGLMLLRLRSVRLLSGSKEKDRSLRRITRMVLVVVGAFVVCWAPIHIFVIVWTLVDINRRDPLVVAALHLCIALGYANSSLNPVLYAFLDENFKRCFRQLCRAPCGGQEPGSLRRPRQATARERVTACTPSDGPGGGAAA
Procedure: (§1) Male, Wistar rats (150-250 g, VAF, Charles River, Kingston, N.Y.) are killed by cervical dislocation, and their brains removed and placed immediately in ice cold Tris HCl buffer (50 mM, pH 7.4). The forebrains are separated from the remainder of the brain by a coronal transection, beginning dorsally at the colliculi and passing ventrally through the midbrain-pontine junction. After dissection, the forebrains are homogenized in Tris buffer in a Teflon® glass homogenizer. The homogenate is diluted to a concentration of 1 g of forebrain tissue per 80 mL Tris and centrifuged at 39,000×g for 10 min. The pellet is resuspended in the same volume of Tris buffer containing 5 mM MgCl2 with several brief pulses from a Polytron homogenizer. This particulate preparation is used for the delta opioid binding assays. Following incubation with the delta selective peptide ligand ˜4 nM [^3H]DPDPE at 25° C. for 2.5 h in a 96-well plate with total volume of 1 mL, the plate contents are filtered through Wallac filtermat B sheets on a Tomtec 96-well harvester. The filters are rinsed three times with 2 mL of 10 mM HEPES (pH 7.4), and dried in a microwave oven 2 min twice. To each sample area 2×50 μL of Betaplate Scint scintillation fluid (LKB) is added and analyzed on a LKB (Wallac) 1205 BetaPlate liquid scintillation counter.
(§2) The data are used to calculate either the % inhibition compared to control binding (when only a single concentration of test compound is evaluated) or a Ki value (when a range of concentrations is tested). % inhibition is calculated as: [(total dpm−test compound dpm)/(total dpm−nonspecific dpm)]*100. Kd and Ki values were calculated using GraphPad PRISM data analysis program.

mu opioid receptor = biological target: T5, mu opioid receptor (Rattus norvegicus, UniProt P33535); test: Rat Brain Mu Opioid Receptor Binding Assay (and Version 2a, [3H]DAMGO); settings: rat forebrain membranes, margin of error 10-20%, read-out: r Ki μ
T5 construct: from tissue; host or cells: forebrain of male Wistar rats
T5 sequence (P33535 whole entry): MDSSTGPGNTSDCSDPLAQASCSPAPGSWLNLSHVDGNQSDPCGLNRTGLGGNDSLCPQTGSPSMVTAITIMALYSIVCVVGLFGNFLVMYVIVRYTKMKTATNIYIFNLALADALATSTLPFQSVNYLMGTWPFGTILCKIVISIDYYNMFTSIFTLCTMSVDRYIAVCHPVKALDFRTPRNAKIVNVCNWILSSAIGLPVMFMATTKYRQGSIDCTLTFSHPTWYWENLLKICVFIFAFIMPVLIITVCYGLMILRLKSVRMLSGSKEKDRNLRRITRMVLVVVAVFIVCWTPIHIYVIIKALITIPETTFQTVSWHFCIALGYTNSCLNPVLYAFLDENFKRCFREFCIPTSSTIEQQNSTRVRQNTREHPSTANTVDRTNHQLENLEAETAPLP
Procedure: as §1, with “mu-opioid” for “delta opioid”, “Following incubation with the delta selective peptide ligand ˜4 nM [^3H]DPDPE at 25° C. for 2.5 h in a 96-well plate with total volume of 1 mL, the plate contents are filtered through Wallac filtermat B sheets on a Tomtec 96-well harvester.” left out, “(pH7.4),” for “(pH 7.4),”
as §2, with “dpm-test” for “dpm−test”, “dpm-nonspecific” for “dpm−nonspecific”
Male, Wistar rats (150-250 g, VAF, Charles River, Kingston, N.Y.) were killed by cervical dislocation, and their brains removed and placed immediately in ice-cold Tris HCl buffer (50 mM, pH 7.4). The forebrains were separated from the remainder of the brain by a coronal transection, beginning dorsally at the colliculi and passing ventrally through the midbrain-pontine junction. After dissection, the forebrains were homogenized in Tris buffer in a Teflon®-glass homogenizer. The homogenate was diluted to a concentration of 1 g of forebrain tissue per 80 mL Tris and centrifuged at 39,000×g for 10 min. The pellet was resuspended in the same volume of Tris buffer containing 5 mM MgCl2 with several brief pulses from a Polytron homogenizer. This particulate preparation was used for the mu opioid binding assay. Following incubation with 0.8 nM of the mu selective ligand [^3H]DAMGO at 25° C. for 2.5 h in a 96-well plate with total 1 mL, the plate contents were filtered through Wallac filtermat B sheets on a Tomtec 96-well harvester. The filters were rinsed three times with 2 mL of 10 mM HEPES (pH 7.4), and dried in a microwave oven. To each sample area, Betaplate Scint scintillation fluid (LKB) was added and the resulting radioactivity quantified on a LKB (Wallac) 1205 BetaPlate liquid scintillation counter. Kd and Ki values were calculated using the GraphPad PRISM data analysis program.

[3] = biological target: T6, mu opioid receptor (CHO-hMOR cell membranes) (Homo sapiens, UniProt P35372); test: Mu Opioid Receptor Functional Assay: [35S]GTPγS Binding in CHO-hMOR Cell Membranes, Versions 1 and 2; format: biochemical; settings: for MOR GTP binding assay_v1 (% I): version 1, % inhibition of agonist-stimulated GTPγS binding; for MOR GTP binding assay_v2 (% I): version 2, % inhibition of agonist-stimulated GTPγS binding; for EC50: version 2, read-out: MOR GTP binding assay v2 EC50
T6 construct: purchased Receptor Biology, Inc. (Baltimore, Md.); host or cells: CHO cells (recombinant expression)
T6 sequence (P35372 whole entry): as the sequence (P35372 whole entry) above
Method in brief: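 Agonist-stimulated [35S]GTPγS (0.5 nM) binding measured by SPA in human MOR CHO membranes, buffer pH 7.6 with 100 mM NaCl, 5 mM MgCl2. Antagonist mode: % inhibition of stimulation by 1 μM SNC80; agonist mode: EC50 fitted. Basal binding without agonist, non-specific with 10 μM cold GTPγS.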

[4] = test system: novel environment-stressed mice; test: In Vivo Assay-Stress-Induced Fecal Output (Fecal Output for 1 hr); design: species or system mouse; settings: 30 mg/kg oral, 1 hr; for response vs control in vivo at 30 mg/kg: Mus musculus, po, 1 h
Text: This assay evaluates the fecal output in novel environment-stressed mice to that of acclimated controls.
Methods: Adult, male, Crl:CD-1(ICR) mice, weighing ˜30-35 g were used in these studies, with a minimum of 10 mice per dose group. One group of mice was assigned as acclimated, or “non-stressed” controls. These control mice were transported from colony housing, where they were housed 3/cage in polycarbonate cages with access to food and water ad lib. to the procedure room. The mice were removed from their home cages and individually housed in 20 cm wide×20 cm deep×15 cm tall cages, equipped with a wire mesh bottom where they remained for a 16-18 hr period of acclimation to their novel environment. Mice were allowed access to food and water ad lib. during acclimation. The other groups of mice were assigned as non-acclimated, or “stressed” treatment groups. Each mouse in each group was weighed and vehicle, or test compound, was intragastrically administered by oral intubation in 0.5% methylcellulose. Mice were allowed access to water only ad lib. during the test period. After compound administrations, acclimated (control) as well as non-acclimated (stressed) mice were individually housed in a 20 cm wide×20 cm deep×15 cm tall cage, with a wire mesh bottom. An absorbant cardboard is placed beneath the cages. The number of fecal pellets excreted by each mouse was determined at hourly intervals following placement of the mice in the individual cages. Raw Data=# of fecal pellets/mouse/hr. […]

SMILES | EC50 [1] [nM] | DOR GTP-binding Assay v2 (% I) [1] [%] | Ki [2] [nM] | Ki (delta opioid receptor) [nM] | Ki (mu opioid receptor) [nM] | MOR GTP binding assay_v2 (% I) [3] [%] | EC50 [3] [nM] | further results
COc1ccc(CN(C(=O)[C@@H](N)Cc2c(C)cc(C(N)=O)cc2C)[C@@H](C)c2nc(-c3cccc(C(=O)O)c3)c[nH]2)cc1OC [Cpd 20] | > 10000 | 78.74 | – | – | – | – | – | Ki (human mu opioid receptor): 63 nM
COC(=O)c1ccc(CN(C(=O)[C@@H](N)Cc2c(C)cc(C(N)=O)cc2C)[C@@H](C)c2nc(-c3ccccc3)c[nH]2)cc1 [Cpd 51] | 27 | 66.04 | 113 | – | – | – | – | Ki (human mu opioid receptor): 2.7 nM
Cc1cc(C(N)=O)cc(C)c1C[C@H](N)C(=O)N(Cc1nc(-c2ccccc2)c[nH]1)C(C)C [Cpd 178] | – | – | – | 104 | 0.6 | – | – | MOR GTP binding assay_v1 (% I) [3]: 10.00%; Fecal Output (# pellets) cpd ([4]; novel environment-stressed mice): 5.5 pellets; response vs control in vivo at 30 mg/kg ([4]; relative to acclimated control, read-out: Fecal Output cpd % control): 172%; response vs control in vivo at 30 mg/kg ([4]; relative to novel environment stress (NES) vehicle group, read-out: Fecal Output cpd % NES): 62.5%
N[C@@H](Cc1ccc(O)cc1)C(=O)N(Cc1nc(-c2ccccc2)c[nH]1)C1CCCCC1 [Cpd 191] | – | – | > 10000 | 727 | 189 | – | – | –
N[C@@H](Cc1ccc(O)cc1)C(=O)N(Cc1nc(-c2ccccc2)c[nH]1)CC1CC1 [Cpd 193] | – | – | > 10000 | 182 | 21.1 | – | – | MOR GTP binding assay_v1 (% I) [3]: 54.00%; MOR GTP assay_v1 % of Basal ([3]; version 1, basal binding = 100%): 182.00%
CN(Cc1nc(-c2ccccc2)c[nH]1)C(=O)[C@@H](N)Cc1ccc(O)cc1 [Cpd 198] | – | – | > 10000 | 5180 | 152 | – | – | Ki (human mu opioid receptor): 140 nM
COC(=O)c1ccc(CN(C(=O)[C@@H](N)Cc2c(C)cc(C(N)=O)cc2C)[C@@H](C)c2nc(-c3ccccc3)c[nH]2)nc1 [Cpd 252] | 32.1 | 66.00 | – | – | – | 24.00 | 4.15 | –
Cc1cc(C(N)=O)cc(C)c1C[C@H](N)C(=O)N(Cc1ccc(C(=O)O)cn1)[C@@H](C)c1nc(-c2ccccc2)c[nH]1 [Cpd 253] | 1.35 | 52.00 | – | – | – | 28.00 | 251 | –
Cc1cc(C(N)=O)cc(C)c1C[C@H](N)C(=O)N(Cc1ccc(C(=O)O)nc1)[C@@H](C)c1nc(-c2ccccc2)c[nH]1 [Cpd 254] | 6.27 | 62.00 | – | – | – | 42.00 | 316 | –
COC(=O)c1ccc(CN(C(=O)[C@@H](N)Cc2c(C)cc(C(N)=O)cc2C)[C@@H](C)c2nc(-c3ccccc3)c[nH]2)cn1 [Cpd 255] | 13.1 | 54.00 | – | – | – | 33.00 | 3.48 | –
COC(=O)c1cc(CN(C(=O)[C@@H](N)Cc2c(C)cc(C(N)=O)cc2C)[C@@H](C)c2nc(-c3ccccc3)c[nH]2)ccn1 [Cpd 311] | 1.02 | 41.00 | – | – | – | – | – | –
COC(=O)c1cccc(CN(C(=O)[C@@H](N)Cc2c(C)cc(C(N)=O)cc2C)[C@@H](C)c2nc(-c3ccccc3)c[nH]2)n1 [Cpd 313] | 5.03 | 49 | – | – | – | 29.00 | 50.6 | –
